Laboratory results from patent publication US8198311B2, “Modulators of glucocorticoid receptor, AP-1, and/or NF-κB activity and use thereof” (Bristol-Myers Squibb Company, priority 2006, dated 2012).

How the values were obtained:
[1] = biological target: T1, human full-length glucocorticoid receptor (Homo sapiens, UniProt P04150); experiment: Glucocorticoid Receptor Binding Assay (II), fluorescence polarization competitor kit (Fluormone GS1); details: cell lysate with recombinant human full-length GR
T1 construct: recombinantly expressed human full-length glucocorticoid receptor; purchased PanVera Co., Madison, Wis; P2816
T1 sequence (P04150 1-777): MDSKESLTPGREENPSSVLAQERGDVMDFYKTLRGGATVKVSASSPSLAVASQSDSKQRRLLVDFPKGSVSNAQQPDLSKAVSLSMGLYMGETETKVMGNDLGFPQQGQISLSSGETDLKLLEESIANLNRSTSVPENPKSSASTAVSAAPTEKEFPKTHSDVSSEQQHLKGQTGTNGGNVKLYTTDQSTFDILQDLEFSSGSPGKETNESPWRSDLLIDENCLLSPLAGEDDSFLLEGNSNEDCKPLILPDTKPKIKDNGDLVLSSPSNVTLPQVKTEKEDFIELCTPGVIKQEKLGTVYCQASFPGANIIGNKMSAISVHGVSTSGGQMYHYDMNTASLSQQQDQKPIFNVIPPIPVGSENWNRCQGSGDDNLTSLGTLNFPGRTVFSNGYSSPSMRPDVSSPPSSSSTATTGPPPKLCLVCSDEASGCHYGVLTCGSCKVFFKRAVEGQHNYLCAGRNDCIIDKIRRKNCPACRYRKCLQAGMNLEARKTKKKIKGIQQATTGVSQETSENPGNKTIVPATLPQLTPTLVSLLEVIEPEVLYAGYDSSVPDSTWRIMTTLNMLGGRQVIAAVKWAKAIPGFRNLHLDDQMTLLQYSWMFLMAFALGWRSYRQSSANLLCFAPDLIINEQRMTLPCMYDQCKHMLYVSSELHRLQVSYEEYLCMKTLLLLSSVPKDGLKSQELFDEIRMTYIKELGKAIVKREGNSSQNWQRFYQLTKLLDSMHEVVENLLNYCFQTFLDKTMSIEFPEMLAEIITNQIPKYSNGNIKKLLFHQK
Summary of the method: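 Lysate with recombinant human full-length GR competed against 1 nM Fluormone GS1 tracer. Fluorescence polarization was read after 1 h at room temperature, with compounds tested from 2.4 nM to 40 microMolar.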

[2] = tested on: AP-1 induced transcriptional activity; experiment: Cellular Transrepressional Assay (AP-1 luciferase reporter in A549 cells, PMA-activated); format: cell-based; details: Homo sapiens, A549, 7 h, pAP-1-Luc, 10 ng/ml PMA, read-out: AP-1 (EC50, nM) (Cellular Transrepression Assay)
Summary of the method: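 A549 cells stably carrying a 7×AP-1-luciferase reporter, stimulated with 10 ng/ml PMA with or without compound (0.1 nM-40 μM) for 7 h. Luciferase luminescence read 10 min after reagent addition; repression is percentage decrease of PMA-alone signal, EC50 by curve fitting.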

[3] = biological target: T2, human glucocorticoid receptor (Homo sapiens, UniProt P04150); experiment: Glucocorticoid Receptor Binding Assay (I), fluorescence polarization competitor kit (Fluormone GS Red); details: purified human recombinant full-length GR
T2 construct: purified human recombinant full-length glucocorticoid receptor (2 nM); purchased Invitrogen Part # 2893
T2 sequence (P04150 1-777): T1 sequence (P04150 1-777)
Summary of the method: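 Fluorescence polarization competition: full-length recombinant human GR (2 nM) incubated with 1 nM Fluormone GS Red plus test compound (8.5E-05 to 5 μM) for 2 h at room temperature in the dark before FP read-out.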

Row | Ki [1] [nM] | EC50 [2] [nM] | Ki [3] [nM] | Compound
1 | 34 | > 10000 | 37 | CC(C)(C(c1ccccc1)c1ccc2c(cnn2-c2ccc(F)cc2)c1)C(O)C1CC1 (stereo not drawn) [Example 122, 1-cyclopropyl-3-(1-(4-fluorophenyl)-1H-indazol-5-yl)-2,2-dimethyl-3-phenylpropan-1-ol]
2 | 9 | 48 | 17 | CC(C)(CNC(=O)NCC(F)(F)F)[C@@H](c1ccccc1)c1ccc2c(cnn2-c2ccc(F)cc2)c1 [Example 8, (S)-1-(3-(1-(4-fluorophenyl)-1H-indazol-5-yl)-2,2-dimethyl-3-phenylpropyl)-3-(2,2,2-trifluoroethyl)urea]
3 | 6.4 | 219 | 4.6 | CC(C)CC(c1ccc2c(cnn2-c2ccc(F)cc2)c1)C(C)(C)CNC(=O)NC1CCC1 (stereo not drawn) [Example 27, 1-cyclobutyl-3-(3-(1-(4-fluorophenyl)-1H-indazol-5-yl)-2,2,5-trimethylhexyl)urea]
4 | 452 | > 10000 | 73 | CC(C)CC(c1ccc2c(cnn2-c2ccc(F)cc2)c1)C(C)(C)CNC(=O)NC(C)(C)CN1CCCCC1 (stereo not drawn) [Example 32, 1-(3-(1-(4-fluorophenyl)-1H-indazol-5-yl)-2,2,5-trimethylhexyl)-3-(2-methyl-1-(piperidin-1-yl)propan-2-yl)urea]
